Assay results taken from patent US10800789B2, “Antiviral compounds” (Gilead Pharmasset LLC, priority 2012, dated 2020).
Where two headings read alike, the source gives them in different places.

How the values were obtained:
[1] = tested on: stable HCV 1b RLuc replicon cells (dicistronic genotype 1b Con1 replicon); test: Renilla luciferase HCV replicon reporter assay, genotype 1b; assay type: cell-based; details: Hepatitis C virus, 72 h, stable 1b Con1 RLuc replicon cells, 72 hours; read-out: 1b
Procedure, shortened: (§1)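 72 h compound exposure (3-fold dilutions from 10 mM DMSO stocks) of replicon cells: stable dicistronic RLuc 1a H77, 1b Con1, 2a JFH-1 (NS5A L31); J6-NS5A chimera in JFH-1 (M31), transient in Huh-Lunet or stable. Renilla luciferase read-out, non-linear regression → EC50. DMSO negative control.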

[2] = tested on: stable HCV 1a RLuc replicon cells (dicistronic genotype 1a H77 replicon); test: Renilla luciferase HCV replicon reporter assay, genotype 1a; assay type: cell-based; details: Hepatitis C virus, 72 h, stable 1a H77 RLuc replicon cells
Procedure, shortened: as §1

[3] = tested on: Q30R in genotype 1a NS5A (1a Pi-Rluc replicon, Huh-7-derived cured-51 cells); test: Replicon assay against resistance mutant 1a Q30R; assay type: cell-based, HCV; details: Hepatitis C virus
Procedure, shortened: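 Q30R introduced by site-directed mutagenesis into the 1a Pi-RLuc replicon; replicon RNA transiently transfected into cured-51 cells. Cells treated with 3-fold serially diluted compound for 72 h, then lysed and Renilla luciferase measured; EC50 by non-linear regression.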

[4] = tested on: stable HCV 2a JFH-1 Rluc replicon cells (L31 present in NS5A); test: Renilla luciferase HCV replicon reporter assay, genotype 2a JFH-1; assay type: cell-based; details: Hepatitis C virus
Procedure, shortened: as §1

[5] = tested on: NS5A chimeric genotype 1b Con1 replicon with genotype 3a S52 strain NS5A gene; test: Replicon assay, genotype 3a NS5A chimera; assay type: cell-based, HCV; details: Hepatitis C virus
[6] = IV and PO single dose pharmacokinetic studies in SD rats; assay type: in vivo, male Sprague-Dawley (SD) rats; details: Sprague-Dawley, rat, plasma, male SD rats, PO 2 mg/kg vs IV infusion 1 mg/kg, read-out: Rat % F
Method: IV and PO Single Dose Pharmacokinetic Studies in SD Rats:
The pharmacokinetics of selected compounds was characterized in male Sprague-Dawley (SD) rats (250-300g). In this study, two groups of naïve purebred SD rats (N=3 per group, fasted over night) received the selected compound either as an intravenous (IV) infusion (1 mg/kg over 30 minutes) via the jugular vein or by oral gavage (2 mg/kg). The intravenous (IV) dosing vehicle was 5% ethanol, 35% polyethylene glycol 400 (PEG 400) and 60% water pH 2.0. The oral dosing vehicle was 5% ethanol, 55% PEG 400 and 40% citrate buffer pH 2.2.
Serial blood samples (approximately 0.3 mL each) were collected from jugular vein or other suitable vein at specified time points. For the IV infusion group, the blood samples were collected predose and at 0.25, 0.48, 0.58, 0.75, 1.5, 3, 6, 8, 12 and 24 hours after the start of infusion. For the oral group, the blood samples were collected predose and at 0.25, 0.50, 1, 2, 4, 6, 8, 12 and 24 hours after dosing. The blood samples were collected into VacutainerγM tubes containing EDTA-K3 as the anti-coagulant and were centrifuged at approximately 4° C. to obtain plasma. The plasma samples were stored at −20° C. until analysis by LC/MS/MS.
A bioanalytical method utilizing high performance liquid chromatography coupled to tandem mass spectrometry (LC/MS/MS) was developed for analysis of the selected compound in rat plasma. Detection was performed using selected reaction monitoring (SRM); Ions representing the precursor (M+H)^+ species was selected in quadrupole 1 (Q1) and collided with argon gas in the collision cell (Q2) to generate specific product ion, which was subsequently monitored by quadrupole 3 (Q3). Standard curve and quality control samples were prepared in male rat plasma and processed in the same way as the test samples to generate quantitative data.
Pharmacokinetic parameters were generated using non-compartmental pharmacokinetic analysis (Phoenix WinNonlin, version 6.3). Values below the lower limit of quantification (LLOQ) were assigned a value of zero if predose and treated as missing thereafter. Area under the curve (AUC) was calculated using the linear trapezoidal rule. The oral bioavailability (% F) was determined by comparison of the area under the curve (AUC) of the compound and/or a metabolite generated in plasma following oral administration to that generated following intravenous administration.

[7] = tested on: NS5A chimeric genotype 2a JFH-1 replicon with genotype 2b MD2b-1 strain NS5A gene (M31 present); test: Replicon assay, genotype 2b NS5A chimera; assay type: cell-based, HCV; details: Hepatitis C virus
Procedure, shortened: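 EC50 was fitted by non-linear regression to Renilla luciferase signal after 72 h of exposure to 3-fold serially diluted compound (10 mM DMSO stocks). Controls were DMSO (none) and ITMN-191 above 100×EC50 (full). Chimeric 2a replicons were used either stable or transiently transfected into Huh-Lunet cells.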

[8] = tested on: NS5A chimeric genotype 1b Con1 replicon with genotype 4a ED43 strain NS5A gene; test: Replicon assay, genotype 4a NS5A chimera; assay type: cell-based, HCV; details: Hepatitis C virus
[9] = tested on: NS5A chimeric genotype 2a JFH-1 replicon with genotype 2a J6 strain NS5A gene (M31 present); test: Replicon assay, genotype 2a J6 NS5A chimera; assay type: cell-based, HCV; details: Hepatitis C virus
Procedure, shortened: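 Cells carrying the stable or transiently transfected (Huh-Lunet) dicistronic RLuc replicons received 3-fold serial compound dilutions from 10 mM DMSO stocks. After 72 h, cells were lysed and Renilla luciferase read. DMSO served as the no-inhibition control and ITMN-191 above 100×EC50 as the positive control; EC50 by non-linear regression.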

[10] = read-out: 2a JFH (nM), genotype 2a JFH-1 replicon (L31 in NS5A), stable cells
[11] = read-out: 2a JFH, stable 2a JFH-1 Rluc replicon cells, L31 in NS5A, activity range
[12] = read-out: 3a (s) (nM), genotype 3a NS5A chimeric replicon, stable replicon cells (s)
[13] = read-out: 3a (s), (s), activity range
[14] = 2BS, read-out: 2b (s), stably replicating replicon cells (s), activity range
[15] = read-out: 2b (s) (nM), genotype 2b MD2b-1 NS5A chimeric replicon (M31), stably replicating replicon cells (s)
[16] = read-out: 4a (s) (nM), genotype 4a NS5A chimeric replicon, stable replicon cells (s)
[17] = read-out: 4a (s), (s), activity range
[18] = read-out: 2b (t) (nM), genotype 2b MD2b-1 NS5A chimeric replicon (M31), transiently transfected (t)
[19] = read-out: 2b (t), transiently transfected (t) into Huh-Lunet cells, activity range

Row | SMILES | EC50 [1] | EC50 [2] | EC50 ([2]; activity range) | EC50 ([3]; read-out: 1a Q30R) | EC50 ([3]; read-out: 1a Q30R (nM)) | EC50 [4, 10] | EC50 [4, 11] | EC50 [5, 12] | EC50 [5, 13] | bioavailability [6] | EC50 [7, 14] | EC50 [7, 15] | EC50 [8, 16] | EC50 [8, 17] | EC50 ([9]; read-out: 2a J6 (s) (nM), genotype 2a J6 NS5A chimeric replicon (M31), stably replicating replicon cells (s)) | EC50 ([9]; read-out: 2a J6 (s), stably replicating replicon cells (s), activity range) | EC50 [7, 18] | EC50 [7, 19] | EC50 ([9]; read-out: 2a J6 (t) (nM), genotype 2a J6 NS5A chimeric replicon (M31), transiently transfected (t) into Huh-Lunet cells) | EC50 ([9]; read-out: 2a J6 (t), transiently transfected (t) into Huh-Lunet cells, activity range)
1 | CC[C@H](C)[C@H](NC(=O)OC)C(=O)N1[C@@H](C)CC[C@H]1c1nc2ccc3cc4c(cc3c2[nH]1)OCc1cc(-c2cnc([C@@H]3CC[C@H](C)N3C(=O)[C@@H](NC(=O)OC)C3CCOCC3)[nH]2)ccc1-4 [FQ, Methyl [(1 S)-2-[(2S,5S)-2-(5-{2-[(2S,5S)-1-{(2S,3S)-2-[(methoxycarbonyl)amino]-3-methylpentanoyl}-5-methylpyrrolidin-2-yl]-1,11-dihydroisochromeno[4′,3′:6,7]naphtho[1,2-d]imidazol-9-yl}-1H-imidazol-2-yl)-5-methylpyrrolidin-1-yl]-2-oxo-1-(tetrahydro-2H-pyran-4-yl)ethyl]carbamate] | 0.019 nM | 0.012 nM | < 0.1 nM | < 0.1 nM | 0.097 nM | 0.01 nM | < 0.1 nM | 0.02 nM | < 0.1 nM | 17.7% | < 0.1 nM | 0.066 nM | – | – | – | – | – | – | – | –
2 | CC[C@H]1CC[C@@H](c2nc3ccc4cc5c(cc4c3[nH]2)OCc2cc(-c3cnc([C@@H]4C[C@@H]6CCC[C@@H]6N4C(=O)[C@@H](NC(=O)OC)C(C)C)[nH]3)ccc2-5)N1C(=O)[C@@H](NC(=O)OC)C1CCOCC1 [IU] | 0.022 nM | 0.016 nM | < 0.1 nM | – | – | 0.02 nM | < 0.1 nM | 0.098 nM | < 0.1 nM | 26.5% | 0.1 to 0.999 nM | 0.119 nM | 0.004 nM | < 0.1 nM | 0.028 nM | < 0.1 nM | – | – | – | –
3 | CC[C@H]1CC[C@@H](c2ncc(-c3ccc4c(c3)COc3cc5c(ccc6nc([C@@H]7CC[C@H](C)N7C(=O)[C@@H](NC(=O)OC)C7CCOCC7)[nH]c65)cc3-4)[nH]2)N1C(=O)[C@@H](NC(=O)OC)C(C)C [EN, methyl[(1 S)-2-[(2S,5S)-2-(9-{2-[(2S,5S)-5-ethyl-1-{(2S)-2 [(methoxycarbonyl)amino]-3-methylbutanoyl}pyrrolidin-2-yl]-1H-imidazol-5-yl}-1,11 dihydroisochromeno[4′,3′:6,7]naphtho[1,2-d]imidazol-2-yl)-5-methylpyrrolidin-1-yl]-2-oxo-1(tetrahydro-2H-pyran-4-yl)ethyl]carbamate] | 0.034 nM | 0.018 nM | < 0.1 nM | < 0.1 nM | 0.043 nM | 0.015 nM | < 0.1 nM | 0.061 nM | < 0.1 nM | 29.9% | < 0.1 nM | 0.095 nM | – | – | – | – | 0.052 nM | < 0.1 nM | – | –
4 | COC(=O)NC(C(=O)N1[C@@H](C)CC[C@H]1c1nc2ccc3cc4c(cc3c2[nH]1)OCc1cc(-c2cnc([C@@H]3CC[C@H](C)N3C(=O)[C@@H](NC(=O)OC)C3CCOCC3)[nH]2)ccc1-4)C(C)C (stereo partly drawn) [EA, Methyl(1-{(2S,5S)-2-[9-(2-{(2S,5S)-1-[(2S)-2-[(methoxycarbonyl)amino]-2-(tetra hydro-2H-pyran-4-yl)acetyl]-5-methylpyrrolidin-2-yl}-1H-imidazol-5-yl)-1,11-dihydroisochromeno[4′,3′:6,7]naphtho[1,2-d]imidazol-2-yl]-5-methylpyrrolidin-1-yl}-3-methyl-1-oxobutan-2-yl)carbamate] | 0.028 nM | 0.018 nM | < 0.1 nM | – | – | 0.015 nM | < 0.1 nM | 0.035 nM | < 0.1 nM | 10.2% | < 0.1 nM | 0.088 nM | 0.019 nM | < 0.1 nM | – | – | 0.037 nM | < 0.1 nM | 0.035 nM | < 0.1 nM
